Test results taken from patent US20230255990A1, “USE OF 2'-FL FOR TREATMENT OF SYMPTOMS ASSOCIATED WITH AUTISM SPECTRUM DISORDER” (Glycosyn LLC, priority 2020, published 2023).

Assays:
[1] = tested on: gastrointestinal mitochondrial function; conditions: murine model; pathways of electron transport chain, oxidative phosphorylation, protein targeting to the mitochondrion; cited from earlier work
mouse model for ASD = test: Sociality (aggregons) in mouse model for ASD, pups of antibiotic-treated mothers; type: in vivo
Excerpt: ASD is a neurobehavioral disorder in which affected individuals have persistent deficits in social communication and interaction (symptom of ASD). To address the impact of 2′-FL administration on social communication and interaction, a mouse model for ASD was designed and experiments conducted to study ASD-associated neurobehavioral disorders such as interpersonal sociality. A depiction of the system used for scoring contact behavior was adapted from known method, e.g., that described by Harshaw, C. et al. (2014). “Sex Differences in Thermogenesis Structure Behavior and Contact within Huddles of Infant Mice.” Plos One, 9(1), 1-15 and Sokoloff G, Blumberg M S. Competition and cooperation among huddling infant rats. Dev Psychobiol. 2001 September; 39(2):65-75. doi: 10.1002/dev.1030, Erratum in: Dev Psychobiol 2001 November; 39(3):229.
The question to be addressed was whether providing 2′-FL rescues the normal sociality of mouse pups whose social interaction was perturbed. Perturbation of behavior was achieved by antibiotic treatment of their mothers using a method previously developed and validated. Sociality is measured by objective measurement of “aggregons” which means the (a) huddling of dams and pups or (b) pups only in groups.
The mouse experiment involved 22 mother-pup litters including a control group (n=7 litters with 28 pups), an antibiotic treated group (7 litters with 28 pups), and a 2′-FL treated group (8 litters with 32 pups).
Mothers were treated with an antibiotic cocktail, starting from gestational day 12; delivery was on day 20. Antibiotic use was continued for mothers postpartum. Treatment of 2′-FL was given to mothers and pups through their water intake. Sociality was measured at night, as mice are nocturnal animals, using the mean number of aggregons (social groupings). Aggregons could consist of individual mice only if they were not huddled with other mice, or they could be a group defined as either one or more pups with the dam, or two or more pups without the dam. The outcome of the experiment was measured on postpartum day 7. […]

[2] = tested on: IL-10 and inflammatory cytokine expression; conditions: 2′-FL alone or as part of an HMO mixture, pre-clinical studies; cited from earlier work
bifidobacteria = conditions: alone or in combination with other HMOs; cited from earlier work

Substance: 2′-fucosyllactose [2′-FL]
- gastrointestinal mitochondrial function [1]: increase gastrointestinal mitochondrial function
- pup-only aggregons, pattern by experimental group (mouse model for ASD; night 7, p<0.05, 2′-FL group follows the pattern of the controls): This pattern in the aggregons by experimental group was also observed
- marginal mean of aggregons including dams (mouse model for ASD; night 7 postpartum, 2′-FL via water intake to mothers and pups, antibiotic-treated group 41, controls 26, lower number = more sociality): 25 aggregons
- sociality of antibiotic-treated mice (dams and their offspring) (mouse model for ASD; postpartum day 7): normal sociality was rescued
- IL-10 [2]: increase IL-10
- inflammatory cytokine expression [2]: decrease inflammatory cytokine expression
- growth and relative abundance of bifidobacteria (bifidobacteria): increases the growth and relative abundance of bifidobacteria
